Measured values taken from BindingDB's records for doi:10.1111/j.1476-5381.1994.tb13148.x (Smithkline Beecham Pharmaceuticals, 1994).

What was measured:
[1] = biological target: D(3) dopamine receptor (Homo sapiens, UniProt P35462)
[2] = biological target: 5-hydroxytryptamine receptor 2A (Homo sapiens, UniProt P28223)
[3] = biological target: 5-hydroxytryptamine receptor 1E (Homo sapiens, UniProt P28566)
[4] = biological target: Beta-2 adrenergic receptor (Homo sapiens, UniProt P07550)
[5] = biological target: T1, Adenosine receptor A1 (Rattus norvegicus, UniProt P25099)
T1 sequence (P25099 whole entry): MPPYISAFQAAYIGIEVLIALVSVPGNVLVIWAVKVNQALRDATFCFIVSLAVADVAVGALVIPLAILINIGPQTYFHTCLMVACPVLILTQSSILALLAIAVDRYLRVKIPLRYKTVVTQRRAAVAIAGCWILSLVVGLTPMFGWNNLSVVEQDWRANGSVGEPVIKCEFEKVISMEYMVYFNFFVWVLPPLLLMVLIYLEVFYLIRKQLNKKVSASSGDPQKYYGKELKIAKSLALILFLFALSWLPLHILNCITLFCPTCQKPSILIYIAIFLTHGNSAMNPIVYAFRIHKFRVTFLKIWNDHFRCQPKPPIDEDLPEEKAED

[6] = biological target: D(2) dopamine receptor (Homo sapiens, UniProt P14416)
Sequence of D(2) dopamine receptor (P14416 whole entry): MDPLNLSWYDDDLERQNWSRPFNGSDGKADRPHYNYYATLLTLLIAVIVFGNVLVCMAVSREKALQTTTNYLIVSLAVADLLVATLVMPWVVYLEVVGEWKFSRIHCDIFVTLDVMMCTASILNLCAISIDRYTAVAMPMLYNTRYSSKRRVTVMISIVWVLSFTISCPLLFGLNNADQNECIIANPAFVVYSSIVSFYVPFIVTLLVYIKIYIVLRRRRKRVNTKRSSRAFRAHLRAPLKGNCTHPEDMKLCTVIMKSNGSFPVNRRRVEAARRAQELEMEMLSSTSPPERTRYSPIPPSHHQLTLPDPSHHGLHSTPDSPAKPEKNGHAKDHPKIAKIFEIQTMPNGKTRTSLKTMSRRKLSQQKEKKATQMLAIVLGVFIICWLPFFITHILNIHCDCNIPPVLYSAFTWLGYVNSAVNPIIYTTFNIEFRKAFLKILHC

[7] = biological target: D(1A) dopamine receptor (Homo sapiens, UniProt P21728)
Sequence of D(1A) dopamine receptor (P21728 whole entry): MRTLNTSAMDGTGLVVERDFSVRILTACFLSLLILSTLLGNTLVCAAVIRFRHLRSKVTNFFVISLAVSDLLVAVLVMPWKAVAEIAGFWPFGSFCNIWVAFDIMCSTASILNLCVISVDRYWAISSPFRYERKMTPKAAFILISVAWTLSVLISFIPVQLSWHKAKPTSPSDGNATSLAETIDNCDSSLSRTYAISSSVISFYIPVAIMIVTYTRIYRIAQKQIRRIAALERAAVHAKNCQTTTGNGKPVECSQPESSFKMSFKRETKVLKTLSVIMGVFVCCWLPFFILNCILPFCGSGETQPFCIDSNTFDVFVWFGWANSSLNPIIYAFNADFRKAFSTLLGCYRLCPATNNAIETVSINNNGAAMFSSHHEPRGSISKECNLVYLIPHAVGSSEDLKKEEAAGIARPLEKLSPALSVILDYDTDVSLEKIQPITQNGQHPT

[8] = biological target: Gamma-aminobutyric acid receptor subunit alpha-1 (Rattus norvegicus, UniProt P62813)
Sequence of Gamma-aminobutyric acid receptor subunit alpha-1 (Rattus norvegicus, UniProt P62813) (P62813 whole entry): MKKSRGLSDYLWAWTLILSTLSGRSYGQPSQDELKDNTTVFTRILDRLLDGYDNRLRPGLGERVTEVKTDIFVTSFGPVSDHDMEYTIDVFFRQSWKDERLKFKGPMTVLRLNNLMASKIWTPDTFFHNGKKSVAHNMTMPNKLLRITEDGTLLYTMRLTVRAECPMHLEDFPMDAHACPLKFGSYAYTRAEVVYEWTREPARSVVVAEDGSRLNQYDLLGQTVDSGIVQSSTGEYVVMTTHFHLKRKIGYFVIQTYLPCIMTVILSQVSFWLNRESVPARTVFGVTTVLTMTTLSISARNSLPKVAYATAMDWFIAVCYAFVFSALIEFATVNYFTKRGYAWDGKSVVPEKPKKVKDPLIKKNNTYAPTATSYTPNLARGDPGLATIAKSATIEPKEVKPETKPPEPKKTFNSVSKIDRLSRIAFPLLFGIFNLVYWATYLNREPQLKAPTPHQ

[9] = biological target: 5-hydroxytryptamine receptor 1D (Cavia porcellus, UniProt Q60484)
Sequence of 5-hydroxytryptamine receptor 1D (Q60484 whole entry): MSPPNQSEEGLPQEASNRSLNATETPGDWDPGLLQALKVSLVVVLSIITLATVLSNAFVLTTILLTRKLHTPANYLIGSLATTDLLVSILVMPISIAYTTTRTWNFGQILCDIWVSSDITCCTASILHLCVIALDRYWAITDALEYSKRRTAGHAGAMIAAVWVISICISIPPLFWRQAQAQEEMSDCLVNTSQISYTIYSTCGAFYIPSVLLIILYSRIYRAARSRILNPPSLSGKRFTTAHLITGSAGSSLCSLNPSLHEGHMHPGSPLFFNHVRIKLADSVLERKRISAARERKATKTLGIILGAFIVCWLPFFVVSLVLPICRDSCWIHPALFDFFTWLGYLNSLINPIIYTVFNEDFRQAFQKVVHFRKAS

[10] = biological target: T2, 5-hydroxytryptamine receptor 2C (Sus scrofa, UniProt G7ZKZ7)
T2 sequence (G7ZKZ7 whole entry): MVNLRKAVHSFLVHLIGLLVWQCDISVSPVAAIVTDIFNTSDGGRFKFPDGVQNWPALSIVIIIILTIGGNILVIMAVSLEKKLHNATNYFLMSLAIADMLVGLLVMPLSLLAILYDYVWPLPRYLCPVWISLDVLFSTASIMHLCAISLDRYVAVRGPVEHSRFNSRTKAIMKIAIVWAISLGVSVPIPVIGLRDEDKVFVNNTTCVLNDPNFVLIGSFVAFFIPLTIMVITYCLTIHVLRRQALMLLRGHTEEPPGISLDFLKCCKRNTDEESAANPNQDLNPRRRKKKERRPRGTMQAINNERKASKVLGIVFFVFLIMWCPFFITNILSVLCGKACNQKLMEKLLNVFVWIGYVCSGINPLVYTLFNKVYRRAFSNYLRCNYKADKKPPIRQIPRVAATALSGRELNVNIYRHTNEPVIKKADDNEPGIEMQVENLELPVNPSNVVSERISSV

[11] = biological target: T3, 5-hydroxytryptamine receptor 3A (Rattus norvegicus, UniProt P35563)
T3 sequence (P35563 whole entry): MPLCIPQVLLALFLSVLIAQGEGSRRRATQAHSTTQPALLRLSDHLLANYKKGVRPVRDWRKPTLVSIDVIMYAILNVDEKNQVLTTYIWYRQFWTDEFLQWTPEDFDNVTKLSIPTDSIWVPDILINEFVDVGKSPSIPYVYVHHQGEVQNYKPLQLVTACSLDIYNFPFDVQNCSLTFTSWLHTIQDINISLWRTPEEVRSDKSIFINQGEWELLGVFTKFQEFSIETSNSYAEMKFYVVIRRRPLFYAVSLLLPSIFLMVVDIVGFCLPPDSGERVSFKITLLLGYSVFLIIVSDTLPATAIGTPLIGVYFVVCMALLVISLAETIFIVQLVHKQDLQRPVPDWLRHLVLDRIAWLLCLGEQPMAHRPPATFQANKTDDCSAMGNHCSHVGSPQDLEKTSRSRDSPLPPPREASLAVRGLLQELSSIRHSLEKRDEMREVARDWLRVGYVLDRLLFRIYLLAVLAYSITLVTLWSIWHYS

[12] = biological target: T4, Solute carrier family 22 member 1 (Rattus norvegicus, UniProt Q63089)
T4 sequence (Q63089 whole entry): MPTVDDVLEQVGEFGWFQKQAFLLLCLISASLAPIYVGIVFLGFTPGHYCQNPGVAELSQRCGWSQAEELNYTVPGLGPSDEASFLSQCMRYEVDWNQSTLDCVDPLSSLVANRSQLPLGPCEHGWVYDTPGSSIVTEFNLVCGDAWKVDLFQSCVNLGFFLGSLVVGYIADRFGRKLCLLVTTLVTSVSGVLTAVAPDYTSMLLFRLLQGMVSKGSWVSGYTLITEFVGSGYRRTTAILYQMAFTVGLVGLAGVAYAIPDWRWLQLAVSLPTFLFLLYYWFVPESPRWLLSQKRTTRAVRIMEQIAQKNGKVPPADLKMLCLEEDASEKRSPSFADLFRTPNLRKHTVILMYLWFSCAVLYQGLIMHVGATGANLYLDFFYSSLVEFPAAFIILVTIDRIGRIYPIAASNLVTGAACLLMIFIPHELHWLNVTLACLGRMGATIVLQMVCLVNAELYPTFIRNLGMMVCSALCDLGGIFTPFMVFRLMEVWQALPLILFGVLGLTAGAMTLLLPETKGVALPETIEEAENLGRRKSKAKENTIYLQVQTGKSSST

[13] = biological target: T5, Adrenergic alpha2 receptor (Mesocricetus auratus, UniProt Q60533)
T5 sequence (Q60533 whole entry): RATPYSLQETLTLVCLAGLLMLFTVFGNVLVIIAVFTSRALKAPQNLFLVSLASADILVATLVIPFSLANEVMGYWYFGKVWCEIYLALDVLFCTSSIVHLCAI

[14] = biological target: Beta-1 adrenergic receptor (Homo sapiens, UniProt P08588)
Sequence of Beta-1 adrenergic receptor (P08588 whole entry): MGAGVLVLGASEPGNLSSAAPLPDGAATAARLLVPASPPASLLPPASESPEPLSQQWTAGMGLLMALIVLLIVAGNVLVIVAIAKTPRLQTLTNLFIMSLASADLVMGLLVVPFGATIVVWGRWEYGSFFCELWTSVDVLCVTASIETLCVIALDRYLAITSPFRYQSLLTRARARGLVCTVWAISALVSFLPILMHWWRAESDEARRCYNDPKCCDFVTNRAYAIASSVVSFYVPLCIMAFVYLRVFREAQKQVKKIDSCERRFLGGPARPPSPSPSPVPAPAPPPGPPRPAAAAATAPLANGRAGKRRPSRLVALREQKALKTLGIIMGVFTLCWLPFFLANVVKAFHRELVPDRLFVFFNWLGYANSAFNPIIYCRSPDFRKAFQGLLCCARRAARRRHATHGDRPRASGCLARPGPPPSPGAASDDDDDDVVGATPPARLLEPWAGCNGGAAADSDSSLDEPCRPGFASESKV

[15] = biological target: T6, Gamma-aminobutyric acid receptor subunit alpha-1 (Homo sapiens, UniProt P14867)
T6 sequence (P14867 whole entry): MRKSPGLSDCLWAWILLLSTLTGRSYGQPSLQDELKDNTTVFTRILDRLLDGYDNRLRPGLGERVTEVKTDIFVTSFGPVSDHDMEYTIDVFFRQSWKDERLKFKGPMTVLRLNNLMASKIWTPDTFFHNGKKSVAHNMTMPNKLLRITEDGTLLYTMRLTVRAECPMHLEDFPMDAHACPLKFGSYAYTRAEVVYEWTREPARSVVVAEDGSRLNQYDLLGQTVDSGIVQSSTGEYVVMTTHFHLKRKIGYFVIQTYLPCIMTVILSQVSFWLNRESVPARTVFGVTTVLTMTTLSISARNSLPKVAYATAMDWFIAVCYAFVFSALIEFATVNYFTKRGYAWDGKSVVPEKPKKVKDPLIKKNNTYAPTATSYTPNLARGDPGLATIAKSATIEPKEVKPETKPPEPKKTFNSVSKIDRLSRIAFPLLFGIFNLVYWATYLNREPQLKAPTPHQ

Measured: Ki

Sequence of 5-hydroxytryptamine receptor 2A (P28223 whole entry): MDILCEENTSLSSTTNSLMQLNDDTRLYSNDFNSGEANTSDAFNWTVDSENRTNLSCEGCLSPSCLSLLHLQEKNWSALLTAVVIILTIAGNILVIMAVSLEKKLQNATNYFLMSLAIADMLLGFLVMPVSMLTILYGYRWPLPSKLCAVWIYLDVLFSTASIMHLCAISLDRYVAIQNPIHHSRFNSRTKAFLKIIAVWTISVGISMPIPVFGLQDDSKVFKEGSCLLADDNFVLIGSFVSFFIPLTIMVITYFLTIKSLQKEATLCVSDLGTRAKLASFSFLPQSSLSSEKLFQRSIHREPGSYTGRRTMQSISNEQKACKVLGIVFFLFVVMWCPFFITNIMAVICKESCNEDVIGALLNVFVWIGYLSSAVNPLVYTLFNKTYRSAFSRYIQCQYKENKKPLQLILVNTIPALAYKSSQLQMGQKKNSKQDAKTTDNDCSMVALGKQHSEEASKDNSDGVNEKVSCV
Sequence of 5-hydroxytryptamine receptor 1E (P28566 whole entry): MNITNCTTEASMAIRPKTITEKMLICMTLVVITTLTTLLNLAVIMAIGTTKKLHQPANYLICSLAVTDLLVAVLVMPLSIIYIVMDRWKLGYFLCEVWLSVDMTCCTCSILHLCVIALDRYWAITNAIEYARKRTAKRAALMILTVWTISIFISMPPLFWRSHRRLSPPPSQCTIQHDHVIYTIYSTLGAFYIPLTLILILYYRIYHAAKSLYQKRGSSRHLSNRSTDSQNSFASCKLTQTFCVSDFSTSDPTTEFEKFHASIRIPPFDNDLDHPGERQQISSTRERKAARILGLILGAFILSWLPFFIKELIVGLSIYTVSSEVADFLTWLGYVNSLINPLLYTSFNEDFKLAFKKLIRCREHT
Sequence of Beta-2 adrenergic receptor (P07550 whole entry): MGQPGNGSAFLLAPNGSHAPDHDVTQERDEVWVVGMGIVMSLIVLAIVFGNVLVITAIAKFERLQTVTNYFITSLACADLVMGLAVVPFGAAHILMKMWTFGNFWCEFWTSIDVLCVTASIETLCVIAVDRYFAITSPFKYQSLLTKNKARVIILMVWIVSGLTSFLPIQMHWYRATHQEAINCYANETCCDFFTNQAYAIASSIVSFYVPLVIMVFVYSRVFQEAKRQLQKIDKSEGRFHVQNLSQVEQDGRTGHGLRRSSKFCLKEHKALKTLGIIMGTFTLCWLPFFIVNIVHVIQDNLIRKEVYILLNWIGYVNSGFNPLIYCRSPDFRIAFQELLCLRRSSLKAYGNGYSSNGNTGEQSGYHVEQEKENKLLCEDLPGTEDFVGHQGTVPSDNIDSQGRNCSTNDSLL
Sequence of D(3) dopamine receptor (P35462 as listed by the source): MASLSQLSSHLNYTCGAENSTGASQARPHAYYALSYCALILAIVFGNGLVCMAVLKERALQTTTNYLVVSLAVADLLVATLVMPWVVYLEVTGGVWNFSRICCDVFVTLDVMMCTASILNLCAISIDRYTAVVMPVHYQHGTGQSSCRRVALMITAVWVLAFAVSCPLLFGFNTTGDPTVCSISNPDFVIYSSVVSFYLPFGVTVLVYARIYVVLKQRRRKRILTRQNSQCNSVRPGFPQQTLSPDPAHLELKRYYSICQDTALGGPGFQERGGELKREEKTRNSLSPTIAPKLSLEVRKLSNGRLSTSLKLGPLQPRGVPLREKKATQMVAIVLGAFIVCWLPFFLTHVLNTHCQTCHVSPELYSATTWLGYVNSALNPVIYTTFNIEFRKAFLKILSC

CCCCN1CCC(COC(=O)c2cc(Cl)c(N)c3c2OCCO3)CC1 [CAS_121881]
398 nM: [11]
> 10000 nM: [3] | [5] | [6] | [8] | [9] | [15]
126 nM: [10]
1000 nM: all other assays above
